Legend:
Assay in all cases: cells
[1] = tested on: ES4; format: functional, cell-based, Homo sapiens; conditions: Homo sapiens, ES4;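 further: growth inhibition of human ES4 cells, read out by a cell viability assay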
Description: SANGER: Inhibition of human ES4 cell growth in a cell viability assay.

[2] = tested on: KYSE-140; format: functional, cell-based, Homo sapiens; conditions: Homo sapiens, KYSE-140;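 further: cell viability assay measuring growth inhibition in human KYSE-140 cells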
Description: SANGER: Inhibition of human KYSE-140 cell growth in a cell viability assay.

[3] = tested on: HOP-62; format: functional, cell-based, Homo sapiens; conditions: Homo sapiens, HOP-62;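 further: cell growth inhibition determined with a viability assay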
Description: SANGER: Inhibition of human HOP-62 cell growth in a cell viability assay.

[4] = tested on: OVCAR-4; format: functional, cell-based, Homo sapiens; conditions: Homo sapiens, OVCAR-4;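 further: growth inhibition of human OVCAR-4 cells, measured with a cell viability assay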
Description: SANGER: Inhibition of human OVCAR-4 cell growth in a cell viability assay.

[5] = tested on: NOS-1; format: functional, cell-based, Homo sapiens; conditions: Homo sapiens, NOS-1;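 further: growth inhibition of the human NOS-1 cell line, read out with a cell viability assay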
Description: SANGER: Inhibition of human NOS-1 cell growth in a cell viability assay.

[6] = tested on: RCC10RGB; format: functional, cell-based, Homo sapiens; conditions: Homo sapiens, RCC10RGB;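 further: growth inhibition of human RCC10RGB cells, read out by a cell viability assay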
Description: SANGER: Inhibition of human RCC10RGB cell growth in a cell viability assay.

[7] = tested on: HCC1419; format: functional, cell-based, Homo sapiens; conditions: Homo sapiens, HCC1419;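 further: growth inhibition of human HCC1419 cells, read out as cell viability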
Description: SANGER: Inhibition of human HCC1419 cell growth in a cell viability assay.

[8] = tested on: KM-H2; format: functional, cell-based; conditions: Homo sapiens;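 further: growth inhibition of KM-H2 cells, read out by a cell viability assay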
Description: SANGER: Inhibition of human KM-H2 cell growth in a cell viability assay.

[9] = tested on: COLO-680N; format: functional, cell-based, Homo sapiens; conditions: Homo sapiens, COLO-680N;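 further: cell viability assay used to measure inhibition of COLO-680N cell growth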
Description: SANGER: Inhibition of human COLO-680N cell growth in a cell viability assay.

[10] = tested on: NCI-H2228; format: functional, cell-based, Homo sapiens; conditions: Homo sapiens, NCI-H2228;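 further: growth inhibition of human NCI-H2228 cells, read out by a cell viability assay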
Description: SANGER: Inhibition of human NCI-H2228 cell growth in a cell viability assay.

[11] = tested on: KYSE-450; format: functional, cell-based; conditions: Homo sapiens;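 further: cell growth inhibition measured by a viability assay in human KYSE-450 cells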
Description: SANGER: Inhibition of human KYSE-450 cell growth in a cell viability assay.

[12] = tested on: PANC-08-13; format: functional, cell-based, Homo sapiens; conditions: Homo sapiens, PANC-08-13;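 further: cell growth inhibition, measured with a cell viability assay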
Description: SANGER: Inhibition of human PANC-08-13 cell growth in a cell viability assay.

[13] = tested on: KYSE-150 cell line; format: functional, cell-based, Homo sapiens; conditions: Homo sapiens, KYSE-150;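 further: growth inhibition of human KYSE-150 cells, read out with a cell viability assay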
Description: SANGER: Inhibition of human KYSE-150 cell growth in a cell viability assay.

[14] = tested on: HT1197; format: functional, cell-based, Homo sapiens, HT-1197; conditions: Homo sapiens, HT1197
Description: SANGER: Inhibition of human HT-1197 cell growth in a cell viability assay.

[15] = tested on: DOK; format: functional, cell-based, Homo sapiens; conditions: Homo sapiens, DOK;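 further: cell viability assay read-out, values reflect inhibition of cell growth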
Description: SANGER: Inhibition of human DOK cell growth in a cell viability assay.

[16] = tested on: A2780; format: functional, cell-based, Homo sapiens; conditions: Homo sapiens, A2780;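 further: growth inhibition of A2780 cells, read out with a cell viability assay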
Description: SANGER: Inhibition of human A2780 cell growth in a cell viability assay.

[17] = tested on: MDA-MB-231; format: functional, cell-based, Homo sapiens; conditions: Homo sapiens, MDA-MB-231
Description: SANGER: Inhibition of human MDA-MB-231 cell growth in a cell viability assay.

[18] = tested on: LCLC-103H cell line; format: functional, cell-based, Homo sapiens; conditions: Homo sapiens, LCLC-103H
Description: SANGER: Inhibition of human LCLC-103H cell growth in a cell viability assay.

[19] = tested on: ES3; format: functional, cell-based, Homo sapiens; conditions: Homo sapiens, ES3;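 further: growth inhibition of ES3 cells, read out with a cell viability assay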
Description: SANGER: Inhibition of human ES3 cell growth in a cell viability assay.

[20] = tested on: CAL-72; format: functional, cell-based, Homo sapiens; conditions: Homo sapiens, CAL-72;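 further: cell viability assay measuring inhibition of proliferation in the CAL-72 cell line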
Description: SANGER: Inhibition of human CAL-72 cell growth in a cell viability assay.

[21] = tested on: NCI-H2170; format: functional, cell-based, Homo sapiens; conditions: Homo sapiens, NCI-H2170;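 further: cell viability assay measuring growth inhibition of human NCI-H2170 cancer cells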
Description: SANGER: Inhibition of human NCI-H2170 cell growth in a cell viability assay.

[22] = tested on: BXPC-3; format: functional, cell-based, Homo sapiens; conditions: Homo sapiens, BXPC-3;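 further: growth inhibition of human BxPC-3 cells, read out by a cell viability assay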
Description: SANGER: Inhibition of human BxPC-3 cell growth in a cell viability assay.

[23] = tested on: MFH-ino; format: functional, cell-based; conditions: Homo sapiens;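 further: growth inhibition of human MFH-ino cells, read out by a cell viability assay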
Description: SANGER: Inhibition of human MFH-ino cell growth in a cell viability assay.

[24] = tested on: SK-MEL-28; format: functional, cell-based; conditions: Homo sapiens;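 further: growth inhibition of human SK-MEL-28 cells, read out with a cell viability assay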
Description: SANGER: Inhibition of human SK-MEL-28 cell growth in a cell viability assay.

[25] = tested on: AU565; format: functional, cell-based, Homo sapiens; conditions: Homo sapiens, AU565;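 further: cell viability assay measuring growth inhibition of human AU565 cells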
Description: SANGER: Inhibition of human AU565 cell growth in a cell viability assay.

[26] = tested on: NCI-H1793; format: functional, cell-based, Homo sapiens; conditions: Homo sapiens, NCI-H1793;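 further: cell growth inhibition, read out by a cell viability assay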
Description: SANGER: Inhibition of human NCI-H1793 cell growth in a cell viability assay.

[27] = tested on: HuO-3N1; format: functional, cell-based, Homo sapiens; conditions: Homo sapiens, HuO-3N1;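 further: cell viability readout used to measure how strongly compounds suppress proliferation of human HuO-3N1 cells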
Description: SANGER: Inhibition of human HuO-3N1 cell growth in a cell viability assay.

[28] = tested on: H4; format: functional, cell-based; conditions: Homo sapiens
Description: SANGER: Inhibition of human H4 cell growth in a cell viability assay.

[29] = tested on: AM-38; format: functional, cell-based, Homo sapiens; conditions: Homo sapiens, AM-38;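 further: growth inhibition of AM-38 cells of human origin, read out by a cell viability assay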
Description: SANGER: Inhibition of human AM-38 cell growth in a cell viability assay.

[30] = tested on: SK-MEL-2; format: functional, cell-based, Homo sapiens; conditions: Homo sapiens, SK-MEL-2;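 further: growth inhibition of human SK-MEL-2 cells measured with a cell viability assay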
Description: SANGER: Inhibition of human SK-MEL-2 cell growth in a cell viability assay.

[31] = tested on: SKG-IIIa; format: functional, cell-based, Homo sapiens; conditions: Homo sapiens, SKG-IIIa;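 further: cell growth inhibition, read out with a cell viability assay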
Description: SANGER: Inhibition of human SKG-IIIa cell growth in a cell viability assay.

[32] = tested on: DSH1; format: functional, cell-based, Homo sapiens; conditions: Homo sapiens, DSH1;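 further: growth inhibition of human DSH1 cells, measured with a cell viability readout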
Description: SANGER: Inhibition of human DSH1 cell growth in a cell viability assay.

[33] = tested on: Panc1005; format: functional, cell-based, Homo sapiens; conditions: Homo sapiens, Panc1005;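 further: growth inhibition of human PANC-10-05 cells, measured by a cell viability assay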
Description: SANGER: Inhibition of human PANC-10-05 cell growth in a cell viability assay.

[34] = tested on: COLO-792; format: functional, cell-based, Homo sapiens; conditions: Homo sapiens, COLO-792
Description: SANGER: Inhibition of human COLO-792 cell growth in a cell viability assay.

[35] = tested on: SF-268; format: functional, cell-based, Homo sapiens; conditions: Homo sapiens, SF-268;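 further: growth inhibition of SF-268 cells determined with a cell viability assay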
Description: SANGER: Inhibition of human SF268 cell growth in a cell viability assay.

[36] = tested on: OVCAR-8; format: functional, cell-based, Homo sapiens; conditions: Homo sapiens, OVCAR-8;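 further: growth inhibition of human OVCAR-8 cells, read out by a cell viability assay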
Description: SANGER: Inhibition of human OVCAR-8 cell growth in a cell viability assay.

[37] = tested on: DMS-114; format: functional, cell-based, Homo sapiens; conditions: Homo sapiens, DMS-114
[38] = tested on: SW48; format: functional, cell-based, Homo sapiens; conditions: Homo sapiens, SW48;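 further: growth inhibition of SW48 cells, read out with a cell viability assay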
Description: SANGER: Inhibition of human SW48 cell growth in a cell viability assay.

[39] = tested on: NOMO-1; format: functional, cell-based; conditions: Homo sapiens;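 further: growth inhibition of human NOMO-1 cells measured by a cell viability assay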
Description: SANGER: Inhibition of human NOMO-1 cell growth in a cell viability assay.

[40] = tested on: MSTO-211H; format: functional, cell-based, Homo sapiens; conditions: Homo sapiens, MSTO-211H
Description: SANGER: Inhibition of human MSTO-211H cell growth in a cell viability assay.

[41] = tested on: BFTC-905; format: functional, cell-based, Homo sapiens; conditions: Homo sapiens, BFTC-905
Description: SANGER: Inhibition of human BFTC-905 cell growth in a cell viability assay.

[42] = tested on: Hs-578T; format: functional, cell-based, Homo sapiens; conditions: Homo sapiens, Hs-578T
Description: SANGER: Inhibition of human Hs-578-T cell growth in a cell viability assay.

[43] = tested on: HCC2157; format: functional, cell-based; conditions: Homo sapiens;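 further: growth inhibition of the cancer cell line, read out as cell viability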
Description: SANGER: Inhibition of human HCC2157 cell growth in a cell viability assay.

[44] = tested on: HEC-1; format: functional, cell-based, Homo sapiens; conditions: Homo sapiens, HEC-1;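 further: growth inhibition of the cell line, read out with a cell viability assay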
Description: SANGER: Inhibition of human HEC-1 cell growth in a cell viability assay.

[45] = tested on: CAPAN-1; format: functional, cell-based, Homo sapiens; conditions: Homo sapiens, CAPAN-1;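 further: growth suppression of CAPAN-1 cells, read out by a cell viability assay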
Description: SANGER: Inhibition of human CAPAN-1 cell growth in a cell viability assay.

[46] = tested on: LS-123; format: functional, cell-based, Homo sapiens; conditions: Homo sapiens, LS-123
Description: SANGER: Inhibition of human LS-123 cell growth in a cell viability assay.

[47] = tested on: RT-112; format: functional, cell-based, Homo sapiens; conditions: Homo sapiens, RT-112
Description: SANGER: Inhibition of human RT-112 cell growth in a cell viability assay.

[48] = tested on: CTB-1; format: functional, cell-based; conditions: Homo sapiens
Description: SANGER: Inhibition of human CTB-1 cell growth in a cell viability assay.

[49] = tested on: NCI-H2030; format: functional, cell-based, Homo sapiens; conditions: Homo sapiens, NCI-H2030;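 further: growth inhibition of human NCI-H2030 cells, read out by a cell viability assay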
Description: SANGER: Inhibition of human NCI-H2030 cell growth in a cell viability assay.

[50] = tested on: JAR; format: functional, cell-based, Homo sapiens; conditions: Homo sapiens, JAR;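 further: growth inhibition of human JAR cells determined with a cell viability assay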
Description: SANGER: Inhibition of human JAR cell growth in a cell viability assay.

COC(=O)CNC(=O)C(=O)OC
IC50 [1]: 1150 µM | IC50 [2]: 1610 µM | IC50 [3]: 167 µM | IC50 [4]: 93.8 µM | IC50 [5]: 772 µM | IC50 [6]: 1040 µM | IC50 [7]: > 4000 µM | IC50 [8]: > 4000 µM | IC50 [9]: 242 µM | IC50 [10]: 42.8 µM | IC50 [11]: 2480 µM | IC50 [12]: 1460 µM | IC50 [13]: 1330 µM | IC50 [14]: 315 µM | IC50 [15]: > 4000 µM | IC50 [16]: 2030 µM | IC50 [17]: 368 µM | IC50 [18]: 880 µM | IC50 [19]: 701 µM | IC50 [20]: 488 µM | IC50 [21]: > 4000 µM | IC50 [22]: 639 µM | IC50 [23]: 644 µM | IC50 [24]: 569 µM | IC50 [25]: > 4000 µM | IC50 [26]: 2950 µM | IC50 [27]: 701 µM | IC50 [28]: 177 µM | IC50 [29]: 668 µM | IC50 [30]: 1960 µM | IC50 [31]: 308 µM | IC50 [32]: 96.2 µM | IC50 [33]: 264 µM | IC50 [34]: > 4000 µM | IC50 [35]: 414 µM | IC50 [36]: 593 µM | IC50 [37]: > 4000 µM | IC50 [38]: 1990 µM | IC50 [39]: 154 µM | IC50 [40]: > 4000 µM | IC50 [41]: 580 µM | IC50 [42]: 3120 µM | IC50 [43]: > 4000 µM | IC50 [44]: 954 µM | IC50 [45]: 101 µM | IC50 [46]: > 4000 µM | IC50 [47]: 176 µM | IC50 [48]: 86 µM | IC50 [49]: 105 µM

COc1ccc(-c2ccc3c(N4CCOC[C@@H]4C)nc(N4CCOC[C@@H]4C)nc3n2)cc1CO [AZD-8055]
IC50 [1]: 0.453 µM | IC50 [2]: 0.782 µM | IC50 [4]: 0.819 µM | IC50 [5]: 0.411 µM | IC50 [50]: > 2 µM | IC50 [6]: > 2 µM | IC50 [7]: 0.869 µM | IC50 [8]: 1.56 µM | IC50 [9]: 1.82 µM | IC50 [10]: 1.27 µM | IC50 [11]: 0.827 µM | IC50 [12]: 0.574 µM | IC50 [13]: 0.662 µM | IC50 [14]: > 2 µM | IC50 [15]: 0.513 µM | IC50 [16]: 1.72 µM | IC50 [17]: 1.72 µM | IC50 [18]: > 2 µM | IC50 [19]: 1.13 µM | IC50 [20]: > 2 µM | IC50 [21]: > 2 µM | IC50 [22]: 0.888 µM | IC50 [24]: 0.559 µM | IC50 [25]: > 2 µM | IC50 [26]: 0.534 µM | IC50 [27]: 0.384 µM | IC50 [28]: 0.601 µM | IC50 [29]: 1.37 µM | IC50 [30]: 0.642 µM | IC50 [31]: 1.31 µM | IC50 [32]: > 2 µM | IC50 [33]: > 2 µM | IC50 [34]: > 2 µM | IC50 [35]: > 2 µM | IC50 [36]: > 2 µM | IC50 [37]: 0.937 µM | IC50 [38]: 1.11 µM | IC50 [39]: > 2 µM | IC50 [40]: 0.578 µM | IC50 [41]: 0.621 µM | IC50 [42]: 0.599 µM | IC50 [43]: > 2 µM | IC50 [44]: 1.18 µM | IC50 [45]: > 2 µM | IC50 [46]: 1.25 µM | IC50 [47]: 0.849 µM | IC50 [48]: 0.272 µM | IC50 [49]: 1.24 µM
